According to patent US8906344B2, “F-18 radiolabeled compounds for diagnosing and monitoring kidney function” (Kasina Laila Innova Pharmaceuticals Private Limited, priority 2012, dated 2014):
Where two headings read alike, the source gives them in different places.

Assays:
[1] = Limited organ bio-distribution in mice; assay type: in vivo, Female Swiss Albino mice; conditions: for Kidney (% ID) / Small Intestine (% ID) / Urine (% ID) / Liver (% ID): n=4
Protocol: Female Swiss Albino mice were randomized (4 animals per time-point) according to body weight on the day prior to the experimental date. Some of the selected compounds of formula (I) are evaluated for a limited bio-distribution study involving five selected organs of interest such as Blood, Liver, Small Intestines, Kidneys and Urine. Each compound was dissolved in a vehicle comprising of 10% N-methyl-2-pyrrolidone in sterile water to achieve a final strength of 1 mg/mL. The mixture was sonicated for 2 min to yield a clear solution. Compound was administered to mice via tail vein at a dose volume of 2 mL/kg in order to obtain a final dose of 2 mg/kg. […] Blood was collected from the retro-orbital plexus in K2-EDTA containing tubes, centrifuged, plasma harvested and stored at −80° C. until further analysis. Liver, kidneys (right and left), and small intestine were harvested, weighted, and stored at −80° C. The small intestine was flushed with normal saline prior to storage. Urine was collected directly from the bladder and stored at −80° C.
Liver, kidneys, and small intestine were homogenized in water at 20% w/v. The respective homogenates were mixed thoroughly and stored at −80° C. until further processing. An aliquot of 100 μL of plasma/tissue homogenate was transferred to a 1.5 mL micro centrifuge tube. Twenty five microliters of compound (5 μg/mL), hundred microliters of 1% formic acid and 750 μL of tert-butyl methyl ether were added and sample was vortexed for 3 min. After centrifugation of the sample at 12,000 rpm at 4° C. for 5 min, supernatant was removed and evaporated under nitrogen stream at 40° C. for an additional 10 min (nitrogen evaporator, Caliper Instruments USA). The residue was reconstituted with 125 μL of solution (acetonitrile:water 1:1) and 10 μL was injected into the chromatographic system. On similar lines, an aliquot of 50 μL of urine was transferred to a 1.5 mL micro centrifuge tube. One hundred and fifty microliters of compound (5 μg/mL), was added and sample was vortexed for 3 min. After centrifugation of the sample at 12,000 rpm at 4° C. for 5 min, supernatant was removed and 10 μL was subjected to LC-MS/MS (Thermo Quantum Ultra) for the analysis.
Analyte concentrations were determined by evaluating the peak area ratio of drug to internal standard against a standard curve. The standard curve was prepared by plotting the relationship between peak area ratio of analyte to internal standard against concentration of standard CC samples by using linear regression y=ax+b and putting the 1/x^2 as weighting factor.
Data were expressed as ng/g for liver, kidneys, and small intestine. Percent compound in tissues was calculated based on the absolute dose administered (mg/kg). Plasma concentrations as a percent of administered dose were extrapolated assuming a total blood volume of 6% body weight and a 60% yield (plasma from blood). Compound concentrations in urine were expressed as μg per total volume collected.

[2] = literature, cited from earlier work; for Plasma clearance: known renal diagnostic agents
[3] = Plasma clearance in rats, single injection clearance method; conditions: for Plasma clearance: normal rats; for Clearance: rats, 2 mg/kg i.v. bolus tail vein, n=3, LC-MS/MS, noncompartmental
Protocol: The experiment for each compound was performed in isoflurane-anesthetized male SD rats (body weight 180-260 gm; n=3). Solution formulation of each compound was prepared in sterile water for injection with strength of 1 mg/mL. All solution formulations were prepared freshly prior to dosing. The dose volume for i.v bolus injection was 2 mL/kg. Three rats for each compound were administered intravenously (i.v.) bolus injection in tail vein at 2 mg/kg body weight. Blood samples were obtained at pre-dose (0 hr), 0.08, 0.17, 0.25, 0.5, 0.75, 1 and 2 hr post dosing. The blood samples (˜120 μL) were taken from the retro-orbital plexus into labelled micro centrifuge tubes, containing 10 μL of 2% w/v K2EDTA solution, as an anticoagulant. […] Bioanalysis of rat plasma samples were analysed with developed method for each analyte using LC-MS/MS (Waters, Xevo TQ-S). The pharmacokinetic parameters such as area under the curve (AUC), elimination half-life (T1/2), volume of distribution (Vss) and clearance (CL) were estimated using a noncompartmental model in Phoenix WinNonlin software, version 6.3.

[4] = 15 min after injection, 2 mg/kg tail vein
[5] = 15 min after injection, 2 mg/kg tail vein, n=4, plasma extrapolated assuming blood volume 6% body weight, 60% yield
[6] = 60 min after injection, n=4, plasma extrapolated to blood

Kidney (% ID) [1, 4]	Small Intestine (% ID) [1, 4]	Urine (% ID) [1, 4]	Kidney (% ID) ([1]; 60 min after injection)	Small Intestine (% ID) ([1]; 60 min after injection)	Plasma clearance [3]	Clearance [3]	retention in liver, small intestine and kidney (in words) ([1]; 15 min after injection)	Liver (% ID) [1, 4]	Liver (% ID) ([1]; 60 min after injection)	Blood (% ID) [1, 6]	Compound	Plasma clearance [2]	clearance as percent of the clearance of 131I-OIH [2]	Blood (% ID) [1, 5]
											Tc-99m MercaptoAcetylGlycylGlycylGlycine [Tc-99m MAG-3]	2.84 ml/min/100 g	50%-60%	
0.47 ± 0.20 % ID	0.11 ± 0.08 % ID	78.21 ± 4.79 % ID	0.01 ± 0.01 % ID	0.01 ± 0.01 % ID	3.48±0.63 ml/min/100 g	3.48 ± 0.63 mL/min/100 g	minimum retention	0.08 ± 0.02 % ID	0.02 ± 0.02 % ID	0.02 ± 0.01 % ID	Nc1ccc(C(=O)NCC(=O)O)cc1[19F] [Compound 6, 2-(4-Amino-3-(18)fluorobenzamido)acetic acid]			0.68 ± 0.38 % ID
0.13 ± 0.01 % ID	0.04 ± 0.02 % ID	72.73 ± 1.91 % ID	0.00 ± 0.00 % ID	0.00 ± 0.00 % ID	2.78±0.19 ml/min/100 g	2.78 ± 0.19 mL/min/100 g	minimum retention	0.08 ± 0.04 % ID	0.00 ± 0.00 % ID	0.02 ± 0.02 % ID	Nc1cc(C(=O)NCC(=O)O)ccc1[18F] [Compound 3, 2-(3-Amino-4-(18)fluorobenzamido)acetic acid]			0.83 ± 0.02 % ID
0.06 ± 0.02 % ID	0.09 ± 0.05 % ID	82.31 ± 9.60 % ID	0.01 ± 0.02 % ID	0.00 ± 0.00 % ID	3.36±0.41 ml/min/100 g	3.36 ± 0.41 mL/min/100 g	minimum retention	0.02 ± 0.03 % ID	0.00 ± 0.00 % ID	0.12 ± 0.17 % ID	C[C@@H](NC(=O)c1ccc(N)cc1[18F])C(=O)O [Compound 11, (R)-2-(4-Amino-2-(18)fluorobenzamido)propanoic acid]			0.94 ± 0.53 % ID
0.09 ± 0.04 % ID	0.01 ± 0.01 % ID	83.59 ± 8.82 % ID	0.00 ± 0.00 % ID	0.00 ± 0.00 % ID	3.25±0.13 ml/min/100 g	3.25 ± 0.13 mL/min/100 g	minimum retention	0.21 ± 0.05 % ID	0.05 ± 0.07 % ID	0.01 ± 0.00 % ID	C[C@H](NC(=O)c1ccc(N)cc1[18F])C(=O)O [Compound 10, (S)-2-(4-Amino-2-(18)fluorobenzamido)propanoic acid]			0.50 ± 0.27 % ID
											O=C(O)CNC(=O)c1ccccc1[131I] [Compound I-131, I-131-ortho iodohippuran]	2.17 ml/min/100 g		

Compound	Kidney (% ID) [1, 4]	Small Intestine (% ID) [1, 4]	Urine (% ID) [1, 4]	Kidney (% ID) ([1]; 60 min after injection)	Small Intestine (% ID) ([1]; 60 min after injection)	Plasma clearance [3]	Clearance [3]	retention in liver, small intestine and kidney (in words) ([1]; 15 min after injection)	Liver (% ID) [1, 4]	Liver (% ID) ([1]; 60 min after injection)	Blood (% ID) [1, 6]	Plasma clearance [2]	clearance as percent of the clearance of 131I-OIH [2]	Blood (% ID) [1, 5]
CC(=O)Nc1ccc(C(=O)NCC(=O)O)c([18F])c1 [Compound 2, 2-(4-Acetamido-2-(18)fluorobenzamido)acetic acid]	1.19 ± 0.53 % ID	0.09 ± 0.04 % ID	84.42 ± 3.44 % ID	0.05 ± 0.09 % ID	0.02 ± 0.02 % ID									
Nc1ccc(C(=O)NCC(=O)O)c([18F])c1 [Compound 1, 2-(4-amino-2-(18)fluorobenzamido)acetic acid]	0.51 ± 0.45 % ID	0.07 ± 0.08 % ID	87.76 ± 6.03 % ID	0.00 ± 0.00 % ID	0.00 ± 0.00 % ID									
Nc1cccc([18F])c1C(=O)NCC(=O)O [Compound 8, 2-(2-Amino-6-(18)fluorobenzamido)acetic acid]	0.91 ± 0.40 % ID	0.10 ± 0.09 % ID	87.51 ± 4.14 % ID	0.02 ± 0.03 % ID	0.01 ± 0.01 % ID		1.55 ± 0.10 mL/min/100 g							
